Test results taken from US20240024266A1, “Therapeutic Agent or Prophylactic Agent for COVID-19” (priority 2020, published 2024).
Like-named read-outs stand apart in the source and are kept apart here.

System: SARS-CoV-2
Experiment: Confirmation test of suppressing effect against SARS-CoV-2 proliferation (nucleocapsid Western blotting, VeroE6/TMPRSS2 cells)
Format: cell-based
Details: for inhibition at 20 µM: Severe acute respiratory syndrome coronavirus 2, VeroE6/TMPRSS2, 8 h, read-out: Inhibition Rate
[1] = 20 μM Pin1 inhibitor, VeroE6/TMPRSS2 cells, MOI 10, cell lysate 8 hours after infection, nucleocapsid band area vs no inhibitor

SMILES	inhibition at 20 µM [1] [%]	further results
COC(=O)c1cc(NC(=O)CC2c3ccccc3-c3ccccc32)cc(NC(=O)c2ccc3c(c2)OCCO3)c1 [H-859]	89	–
O=C(O)c1ccc(OCc2ccc3ccccc3c2)cc1OCc1ccc2ccccc2c1 [H-489]	99	–
O=C(O)c1cc(OCc2ccccc2)ccc1NS(=O)(=O)c1ccc2ccccc2c1 [H-338]	99	–
COc1ccc(-c2cc(C(=O)O[C@H](Cc3ccc4ccccc4c3)C(=O)O)c(C)o2)cc1 [H-32]	86	–
O=C(CC1c2ccccc2-c2ccccc21)O[C@H](Cc1ccc2ccccc2c1)C(=O)O [H-106]	100	–
O=C(O)[C@H](NC(=O)n1c2ccccc2c2ccccc21)c1ccccc1 [H-348]	81	–
O=C(O[C@H](Cc1ccc2ccccc2c1)C(=O)O)c1cc(Cl)cc(Cl)c1 [H-200]	98	–
NCc1ccc(C(=O)Nc2cc(NC(=O)n3c4ccccc4c4ccccc43)cc(C(=O)O)c2)cc1 [H-871]	61	–
COC(=O)c1cc(NC(C)=O)cc(NC(=O)n2c3ccccc3c3ccccc32)c1 [H-696-2]	98	–
O=C(O[C@H](Cc1ccc2ccccc2c1)C(=O)O)c1ccc(Cl)c(Cl)c1 [H-269]	98	–
O=C(O)[C@@H](Cc1ccc2ccccc2c1)NC(=O)n1c2ccccc2c2ccccc21 [H-853]	99	–
O=C(O)[C@@H](Cc1cccc2ccccc12)NC(=O)n1c2ccccc2c2ccccc21 [H-509]	98	–
O=C(N[C@@H](CCCN1C(=O)c2ccccc2C1=O)C(=O)O)C1c2ccccc2-c2ccccc21 [H-619]	94	–
O=C(O)[C@@H](Cc1ccc(OCc2ccccc2)cc1)NC(=O)N1c2ccccc2Oc2ccccc21 [H-336]	98	–
COC(=O)c1cc(NC(=O)c2ccc3ccccc3c2)c[n+](Cc2ccc3ccccc3c2)c1 [H-626]	88	–
COC(=O)c1cc(NC(=O)COc2ccccn2)cc(NC(=O)n2c3ccccc3c3ccccc32)c1 [H-762]	83	–
O=C(Cc1ccc2ccccc2c1)O[C@H](Cc1ccc2ccccc2c1)C(=O)O [H-149]	99	–
O=C(O)c1cc(OCc2ccc3ccccc3c2)ccc1OCc1ccc2ccccc2c1 [H-488]	100	–
O=C(O)c1cc(NC(=O)c2ccc3c(c2)OCCO3)cc(NC(=O)n2ccc3ccccc32)c1 [H-876]	69	–
COC(=O)[C@@H](Cc1ccc2ccccc2c1)NC(=O)n1c2ccccc2c2ccccc21 [H-393]	80	–
O=C(O[C@H](Cc1ccc2ccccc2c1)C(=O)O)c1cccc2ccccc12 [H-452]	52	–

SMILES	inhibition at 20 µM [1] [%]	further results
O=C(O[C@H](Cc1ccc2ccccc2c1)C(=O)O)C1c2ccccc2-c2ccccc21 [H-614]	96	–
O=C(NCCC[C@H](NC(=O)n1c2ccccc2c2ccccc21)C(=O)O)c1cccnc1 [H-708]	62	–
O=C(O[C@H](Cc1ccc2ccccc2c1)C(=O)O)c1cccc(Oc2ccccc2)c1 [H-130]	100	–
O=C(O)CC(Cc1ccc2ccccc2c1)OC(=O)c1ccc2ccccc2c1 (stereo not drawn) [H-514]	99	–
CC(C)(C)OC(=O)NCc1ccc(C(=O)N[C@H](Cc2ccc3ccccc3c2)C(=O)O)cc1 [H-849]	50	–
O=C(Cn1c2ccccc2c2ccccc21)N[C@H](Cc1ccc2ccccc2c1)C(=O)O [H-536]	75	–
O=C(COc1cccc2ccccc12)O[C@H](Cc1ccc2ccccc2c1)C(=O)O [H-179]	97	–
COc1ccc2c(c1)C(C(=O)O[C@H](Cc1ccc3ccccc3c1)C(=O)O)c1ccccc1-2 (stereo partly drawn) [H-254]	94	–
O=C(O[C@H](Cc1cccc2ccccc12)C(=O)O)c1ccc2ccccc2c1 [H-438]	99	–
O=C(O)CCC(Cc1ccc2ccccc2c1)OC(=O)c1ccc2ccccc2c1 (stereo not drawn) [H-507]	99	–
O=C(CC(Cc1ccc2c(c1)OCO2)C(=O)O)Nc1cccc2ccccc12 (stereo not drawn) [H-674]	50	–
O=C(O)/C(=C/c1ccc2ccccc2c1)CC(=O)N1CCc2ccccc2C1 [H-742]	57	–
O=C(COc1ccc2ccccc2c1)O[C@H](Cc1ccc2ccccc2c1)C(=O)O [H-177]	99	–
O=C(Nc1ccc(OCc2ccccc2)cc1C(=O)O)c1cccc(Oc2ccccc2)c1 [H-363]	99	–
O=C(CN(c1ccccc1)c1ccccc1)Nc1cc(NC(=O)c2ccc3ccccc3c2)cc(C(=O)O)c1 [H-819]	95	–
COC(=O)/C(=C/c1ccc2ccccc2c1)CC(=O)N1CCCc2ccccc21 [H-739]	51	–
COC(=O)/C(=C/c1ccc2c(c1)OCO2)CC(=O)Nc1cccc2ccccc12 [H-669]	64	–
O=C(O)[C@@H](Cc1ccc(OCc2ccccc2)cc1)NC(=O)n1c2ccccc2c2ccccc21 [H-337]	100	–
O=C(O[C@H](Cc1ccc2ccccc2c1)C(=O)O)C1c2ccccc2-c2ccc(Cl)cc21 (stereo partly drawn) [H-263]	54	–
COC(=O)[C@H](CCCNC(=O)c1cccnc1)NC(=O)n1c2ccccc2c2ccccc21 [H-707]	55	–
O=C(CN(c1ccccc1)c1ccccc1)Nc1cc(NC(=O)c2ccc3ccccc3n2)cc(C(=O)O)c1 [H-821]	95	–

SMILES	inhibition at 20 µM [1] [%]	further results
Nc1cc(NC(=O)C2c3ccccc3-c3ccccc32)cc(C(=O)OCc2ccccc2)c1 [H-755-2]	–	Inhibition Rate [1]: 75%
O=C(Nc1ccc(OCc2ccccc2)cc1C(=O)O)c1ccc2c(c1)OCCO2 [H-800]	91	–
O=C(O[C@H](Cc1ccc2ccccc2c1)C(=O)O)C1c2ccccc2-c2ccc(F)cc21 (stereo partly drawn) [H-262]	94	–
NCc1ccc(C(=O)N[C@H](Cc2ccc3ccccc3c2)C(=O)O)cc1 [H-851]	59	–
O=C(N[C@H](Cc1c[nH]c2ccccc12)C(=O)O)OCC1c2ccccc2-c2ccccc21 [H-95]	95	–
COC(=O)c1cc(NC(=O)c2ccc3ccccc3n2)cc(NC(=O)n2c3ccccc3c3ccccc32)c1 [H-684]	66	–
Nc1cc(NC(=O)C2c3ccccc3-c3ccccc32)cc(C(=O)OCc2ccccc2)c1 [H-755]	78	–
O=C(Cc1cccc2ccccc12)Nc1ccc(OCc2ccccc2)cc1C(=O)O [H-839]	83	–
O=C(Cn1c2ccccc2c2ccccc21)Nc1ccc(OCc2ccccc2)cc1C(=O)O [H-835]	99	–
O=C(Nc1ccc(OCc2ccc3ccccc3c2)cc1C(=O)O)c1ccc2c(c1)OCCO2 [H-787]	97	–
O=C(Cc1cccc2ccccc12)O[C@H](Cc1ccc2ccccc2c1)C(=O)O [H-151]	98	–
O=C(O)c1cc(NC(=O)c2ccc3ccccc3c2)cc(NC(=O)n2ccc3ccccc32)c1 [H-878]	56	–
COP(=O)(OC)OCC(COc1cccc2ccccc12)OCc1ccc2ccccc2c1 (stereo not drawn) [H-546]	–	inhibition at 20 µM: 83%
O=C(O[C@H](Cc1ccc2ccccc2c1)C(=O)O)c1ccc(Oc2ccccc2)cc1 [H-123]	99	–
CC(C)(C)OC(=O)N[C@@H](Cc1ccccc1)C(=O)O[C@H](Cc1ccc2ccccc2c1)C(=O)O [H-248]	88	–
O=C(COc1ccccn1)Nc1cc(NC(=O)n2c3ccccc3c3ccccc32)cc(C(=O)O)c1 [H-763]	97	–
O=C(O[C@H](Cc1ccc2ccccc2c1)C(=O)O)c1ccc2ccccc2c1 [H-30]	99	–
O=C(O)c1cc(NC(=O)n2c3ccccc3c3ccccc32)cc(NC(=O)n2c3ccccc3c3ccccc32)c1 [H-596]	99	–
COC(=O)c1cc(NC(=O)c2cnc3ccccc3n2)cc(NC(=O)n2c3ccccc3c3ccccc32)c1 [H-685]	58	–
O=C(NCCC[C@H](NC(=O)C1c2ccccc2-c2ccccc21)C(=O)O)c1cccnc1 [H-715]	63	–
O=C(Nc1ccc(OCc2ccccc2)cc1C(=O)O)c1ccc2ccccc2c1 [H-429]	99	–

SMILES	inhibition at 20 µM [1] [%]	further results
O=C(Nc1ccc(OCc2ccc3ccccc3c2)c(C(=O)O)c1)c1ccc2ccccc2c1 [H-448]	100	–
CC(C)(C)OC(=O)Nc1cc(NC(=O)n2c3ccccc3c3ccccc32)cc(C(=O)O)c1 [H-678]	87	–
O=C(Nc1ccc(OCc2ccccc2)cc1C(=O)O)c1ccc2ccccc2n1 [H-339]	76	–
O=C(O[C@H](Cc1ccc2ccccc2c1)C(=O)O)c1ccccc1Oc1ccccc1 [H-132]	99	–
O=C(O)[C@@H](Cc1ccc2ccccc2c1)OCc1ccccc1Oc1ccccc1 [H-464]	100	–
COC(=O)c1cc(NC(=O)c2cccnc2)cc(NC(=O)n2c3ccccc3c3ccccc32)c1 [H-680]	53	–
O=C(O[C@H](Cc1ccc2ccccc2c1)C(=O)O)c1ccc(-c2ccccc2)cc1 [H-33]	100	–
COC(=O)c1cc(OCc2ccncc2)ccc1NC(=O)c1cccnc1 [H-832]	65	–
O=C(O)/C(=C/c1ccc2ccccc2c1)CC(=O)N1CCCc2ccccc21 [H-743]	59	–
O=C(COc1ccc2ccccc2c1)Nc1ccc(OCc2ccccc2)cc1C(=O)O [H-362]	99	–
O=C(CC1c2ccccc2-c2ccccc21)N[C@H](Cc1ccc2ccccc2c1)C(=O)O [H-103]	100	–
O=C(O)[C@@H](Cc1ccc2ccccc2c1)NC(=O)N1c2ccccc2Oc2ccccc21 [H-162]	99	–
Nc1cc(NC(=O)N(c2ccccc2)c2ccccc2)cc(C(=O)O)c1 [H-727]	50	–
O=C(O)[C@@H](Cc1ccc2ccccc2c1)OC(=O)N1c2ccccc2Oc2ccccc21 [H-157]	100	–
O=C(C/C(=C\c1ccc2ccccc2c1)C(=O)O)NC1c2ccccc2-c2ccccc21 [H-644]	95	–
O=C(O[C@H](Cc1ccc2ccccc2c1)C(=O)O)C(c1ccccc1)c1ccccc1 [H-134]	98	–
O=C(O)c1cc(OCc2ccccc2)ccc1NC(=O)c1cccc2ccccc12 [H-370]	98	–
Cc1cc(C)cc(C(=O)O[C@H](Cc2ccc3ccccc3c2)C(=O)O)c1 [H-210]	99	–
